# According to US20250064941A1, “SIGLEC LIGANDS, CONJUGATES, AND METHODS OF USE THEREOF” (Osprey Biopharmaceuticals, Inc., priority 2023, published 2025):
# Key:
# [1] = molecular target: cynomolgus Siglec-2/CD22 (Macaca fascicularis, UniProt A0A2K5WCZ6); assay: biochemical; format: binding; conditions: SPR, steady-state analysis; read-out: Affinity cyno CD22
# Protocol: Prior to immobilization, CD22 proteins were treated with SialoExo (Genovis, Cat #G1-SM1-020) for 4 hours at 37° C. to remove native sialic acid residues.
# Surface preparation for cyno CD22 protein consisted of amine coupling to Cytiva CM5 chip (Cytiva, Cat #BR100530) using the Cytiva amine coupling kit Type 2 (Cytiva, Cat #BR100633). Following the standard amine coupling protocols, EDC and NHS from the kit were mixed 1:1 and injected over flow cells 1 and 2. […] Any active carboxy groups were then capped with 1M Ethanolamine, pH 8.5 for 420s on flow cells 1 and 2.
# Binding experiments of Siglec-ligand conjugated proteins or Siglec ligand compounds were performed on the surfaces prepared above in 10 mM HEPES, 150 mM NaCl, 0.05% Tween-20, pH 7.5, 1% DMSO as the running buffer. […] The compounds were then allowed to dissociate from the surface for 120 seconds. […] Solvent correction was performed using 0.5, 1, 1.5, and 2% DMSO spike into running buffer without DMSO. […] Data was analyzed using steady-state analysis in Biacore Insight Evaluation Software, version 3.0 for Siglec ligand compounds.
# [2] = molecular target: T1, human Siglec-2/CD22 protein (Homo sapiens, UniProt P20273); assay: SPR binding affinity to human CD22; conditions: steady-state analysis
# T1 construct: purchased Acro Biosystems SI2-H82E3
# T1 sequence (P20273 20-847): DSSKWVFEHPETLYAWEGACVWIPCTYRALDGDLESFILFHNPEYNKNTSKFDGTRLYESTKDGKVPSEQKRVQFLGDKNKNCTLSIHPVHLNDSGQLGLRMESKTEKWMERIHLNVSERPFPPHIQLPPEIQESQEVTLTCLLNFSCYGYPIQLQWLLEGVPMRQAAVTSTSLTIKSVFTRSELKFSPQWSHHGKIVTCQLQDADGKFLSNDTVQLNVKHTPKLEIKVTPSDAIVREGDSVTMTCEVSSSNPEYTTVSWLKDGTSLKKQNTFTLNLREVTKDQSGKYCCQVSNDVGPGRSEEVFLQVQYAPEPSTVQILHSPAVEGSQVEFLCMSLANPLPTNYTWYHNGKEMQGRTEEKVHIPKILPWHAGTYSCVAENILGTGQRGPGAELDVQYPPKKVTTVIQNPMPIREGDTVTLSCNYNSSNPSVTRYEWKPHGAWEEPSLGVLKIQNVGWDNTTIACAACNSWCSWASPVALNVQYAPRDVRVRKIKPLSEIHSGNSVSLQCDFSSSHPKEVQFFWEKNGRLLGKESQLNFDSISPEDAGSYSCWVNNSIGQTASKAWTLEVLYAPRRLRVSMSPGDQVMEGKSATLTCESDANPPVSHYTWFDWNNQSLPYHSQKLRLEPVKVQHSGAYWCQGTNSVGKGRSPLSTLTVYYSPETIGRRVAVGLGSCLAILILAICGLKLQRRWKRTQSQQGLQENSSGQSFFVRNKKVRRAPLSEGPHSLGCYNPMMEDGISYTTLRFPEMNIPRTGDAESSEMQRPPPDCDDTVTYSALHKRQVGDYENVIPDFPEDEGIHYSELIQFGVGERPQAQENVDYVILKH
# Method in brief: (§1)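 SialoExo pretreatment, 4 h 37° C.; biotinylated CD22 on SA chip, Biacore 8K. Buffer 10 mM HEPES, 150 mM NaCl, 0.05% Tween-20, pH 7.5, 1% DMSO. Dissociation 120 s; solvent-corrected; steady-state KD.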
# [3] = molecular target: T2, mouse Siglec-2-Fc-Avi (CD22) (Mus musculus, UniProt P35329); assay: SPR binding affinity to mouse CD22; conditions: steady-state analysis
# T2 construct: made in house
# T2 sequence (P35329 22-708 limits assumed): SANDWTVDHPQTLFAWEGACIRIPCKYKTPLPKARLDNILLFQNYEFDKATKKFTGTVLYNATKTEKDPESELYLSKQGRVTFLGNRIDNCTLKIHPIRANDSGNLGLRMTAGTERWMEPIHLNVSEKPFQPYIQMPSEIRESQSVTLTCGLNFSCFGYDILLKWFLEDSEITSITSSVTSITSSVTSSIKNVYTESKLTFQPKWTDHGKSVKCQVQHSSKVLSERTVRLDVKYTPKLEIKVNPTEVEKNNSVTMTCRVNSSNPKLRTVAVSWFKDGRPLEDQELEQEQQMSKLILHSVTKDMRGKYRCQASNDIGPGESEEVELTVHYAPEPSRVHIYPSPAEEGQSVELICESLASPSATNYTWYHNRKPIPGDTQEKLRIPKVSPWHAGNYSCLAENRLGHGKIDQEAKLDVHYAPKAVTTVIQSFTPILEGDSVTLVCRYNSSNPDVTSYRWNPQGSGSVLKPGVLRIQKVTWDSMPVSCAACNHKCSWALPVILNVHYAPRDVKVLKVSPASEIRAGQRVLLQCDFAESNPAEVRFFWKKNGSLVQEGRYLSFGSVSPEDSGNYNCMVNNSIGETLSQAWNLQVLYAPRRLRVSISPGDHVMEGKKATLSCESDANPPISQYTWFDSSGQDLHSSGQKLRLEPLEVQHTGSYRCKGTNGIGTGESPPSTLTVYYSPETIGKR
# Method in brief: as §1
# Chain of cynomolgus Siglec-2/CD22 (A0A2K5WCZ6 entry or part of it): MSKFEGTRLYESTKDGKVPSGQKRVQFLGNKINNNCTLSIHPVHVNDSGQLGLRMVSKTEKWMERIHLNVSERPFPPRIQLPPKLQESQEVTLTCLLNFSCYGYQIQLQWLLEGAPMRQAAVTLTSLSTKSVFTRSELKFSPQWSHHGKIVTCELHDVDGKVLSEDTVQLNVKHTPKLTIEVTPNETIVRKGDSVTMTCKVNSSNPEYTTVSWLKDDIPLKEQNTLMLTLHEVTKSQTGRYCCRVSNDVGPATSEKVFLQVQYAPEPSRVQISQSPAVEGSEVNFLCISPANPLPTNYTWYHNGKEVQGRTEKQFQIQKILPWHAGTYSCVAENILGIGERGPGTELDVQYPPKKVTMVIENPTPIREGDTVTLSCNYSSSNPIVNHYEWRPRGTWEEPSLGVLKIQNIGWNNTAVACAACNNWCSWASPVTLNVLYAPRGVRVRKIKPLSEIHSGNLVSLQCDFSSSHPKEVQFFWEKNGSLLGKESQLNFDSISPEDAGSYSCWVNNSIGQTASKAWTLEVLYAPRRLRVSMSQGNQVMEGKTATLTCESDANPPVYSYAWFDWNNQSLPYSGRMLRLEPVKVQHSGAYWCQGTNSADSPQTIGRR
Compound,Kd [1] [µM],Kd [2] [µM],Kd [3] [µM]
"O=C(O)CCOCCOCCOCCOCCNc1c(NCCCCCCO[C@]2(C(=O)O)C[C@H](O)[C@@H](NC(=O)CO)[C@H]([C@H](O)[C@H](O)CNC(=O)Cc3ccc(Cl)cc3)O2)c(=O)c1=O [Compound 154, (2R,4S,5R,6R)-2-((6-((2-((14-carboxy-3,6,9,12-tetraoxa-tetradecyl)amino)-3,4-dioxocyclobut-1-en-1-yl)amino)hexyl)oxy)-6-((1R,2R)-3-(2-(4-chlorophenyl)acetamido)-1,2-dihydroxypropyl)-4-hydroxy-5-(2-hydroxyacetamido) tetrahydro-2H-pyran-2-carboxylic acid]",< 1,< 1,< 1
"C#CCN(CC(=O)O)C(=O)CCCO[C@]1(C(=O)O)C[C@H](O)[C@@H](NC(=O)CO)[C@H]([C@H](O)[C@H](O)CNC(=O)Cc2ccc(Cl)cc2)O1 [Compound 101, (2R,4S,5R,6R)-2-(4-((carboxymethyl)(prop-2-yn-1-yl)amino)-4-oxobutoxy)-6-((1R,2R)-3-(2-(4-chlorophenyl)acetamido)-1,2-dihydroxypropyl)-4-hydroxy-5-(2-hydroxyacetamido)tetrahydro-2H-pyran-2-carboxylic acid]",1 to 10,1 to 10,1 to 10
"CC(=O)NCCOCCOCCOCCOCCNC(=O)CCCCCO[C@]1(C(=O)O)C[C@H](O)[C@@H](NC(=O)CO)[C@H]([C@H](O)[C@H](O)CNC(=O)Cc2ccc(Cl)cc2)O1 [Compound 228, (2R,4S,5R,6R)-6-((1R,2R)-3-(2-(4-chlorophenyl)acetamido)-1,2-dihydroxypropyl)-2-((2,19-dioxo-6,9,12,15-tetraoxa-3,18-diazatetracosan-24-yl)oxy)-4-hydroxy-5-(2-hydroxyacetamido)tetrahydro-2H-pyran-2-carboxylic acid]",< 1,1 to 10,1 to 10
"CC(=O)NCCOCCOCCOCCOCc1cn(CCCCCCCCO[C@]2(C(=O)O)C[C@H](O)[C@@H](NC(=O)CO)[C@H]([C@H](O)[C@H](O)CNC(=O)Cc3ccc(C(F)F)cc3)O2)nn1 [Compound 259, (2R,4S,5R,6R)-6-((1R,2R)-3-(2-(4-(difluoromethyl)phenyl)acetamido)-1,2-dihydroxypropyl)-4-hydroxy-5-(2-hydroxyacetamido)-2-((8-(4-(15-oxo-2,5,8,11-tetraoxa-14-azahexadecyl)-1H-1,2,3-triazol-1-yl)octyl)oxy)tetrahydro-2H-pyran-2-carboxylic acid]",< 1,< 1,< 1
"C#CCOCCOCCO[C@]1(C(=O)O)C[C@H](O)[C@@H](NC(=O)C(F)F)[C@H]([C@H](O)[C@H](O)CNC(=O)Cc2ccc(-c3ccc(O)cc3)cc2)O1 [Compound 76, (2R,4S,5R,6R)-5-(2,2-difluoroacetamido)-6-((1R,2R)-1,2-dihydroxy-3-(2-(4′-hydroxy-[1,1′-biphenyl]-4-yl)acetamido)propyl)-4-hydroxy-2-(2-(2-(prop-2-yn-1-yloxy)ethoxy)ethoxy)tetrahydro-2H-pyran-2-carboxylic acid]",1 to 10,< 1,1 to 10
"C#CCOCCOCCNc1c(NCCCCCCO[C@]2(C(=O)O)C[C@H](O)[C@@H](NC(=O)CO)[C@H]([C@H](O)[C@H](O)CNC(=O)C(F)(F)c3ccccc3)O2)c(=O)c1=O [Compound 41, (2R,4S,5R,6R)-6-((1R,2R)-3-(2,2-difluoro-2-phenylacetamido)-1,2-dihydroxypropyl)-2-((6-((3,4-dioxo-2-((2-(2-(prop-2-yn-1-yloxy)ethoxy)ethyl)amino)cyclobut-1-en-1-yl)amino)hexyl)oxy)-4-hydroxy-5-(2-hydroxyacetamido) tetrahydro-2H-pyran-2-carboxylic acid]",1 to 10,1 to 10,1 to 10

# Next, values leading:
Kd [1] [µM],Kd [2] [µM],Kd [3] [µM],Compound
1 to 10,1 to 10,> 10,"C#CCCOc1ccc(CO[C@]2(C(=O)O)C[C@H](O)[C@@H](NC(=O)CO)[C@H]([C@H](O)[C@H](O)CNC(=O)C(C)(O)c3ccccc3)O2)cc1 (stereo partly drawn) [Compound 169, (2R,4S,5R,6R)-2-((4-(but-3-yn-1-yloxy)benzyl)oxy)-6-((1R,2R)-1,2-dihydroxy-3-(2-hydroxy-2-phenylpropanamido)propyl)-4-hydroxy-5-(2-hydroxyacetamido)tetrahydro-2H-pyran-2-carboxylic acid]"
1 to 10,< 1,1 to 10,"C#CCCOCCOCCO[C@]1(C(=O)O)C[C@H](O)[C@@H](NC(=O)CO)[C@H]([C@H](O)[C@H](O)CNC(=O)Cc2ccc(-c3ccc(O)cc3)cc2)O1 [Compound 83, (2R,4S,5R,6R)-2-(2-(2-(but-3-yn-1-yloxy)ethoxy)ethoxy)-6-((1R,2R)-1,2-dihydroxy-3-(2-(4′-hydroxy-[1,1′-biphenyl]-4-yl)acetamido)propyl)-4-hydroxy-5-(2-hydroxyacetamido)tetrahydro-2H-pyran-2-carboxylic acid]"
1 to 10,< 1,1 to 10,"C#CCCOc1ccc(CO[C@]2(C(=O)O)C[C@H](O)[C@@H](NC(=O)CO)[C@H]([C@H](O)[C@H](O)CNC(=O)Cc3cccc(-c4cccc(O)c4)c3)O2)cc1 [Compound 45, (2R,4S,5R,6R)-2-((4-(but-3-yn-1-yloxy)benzyl)oxy)-6-((1R,2R)-1,2-dihydroxy-3-(2-(3′-hydroxy-[1,1′-biphenyl]-3-yl)acetamido)propyl)-4-hydroxy-5-(2-hydroxyacetamido)tetrahydro-2H-pyran-2-carboxylic acid]"
> 10,> 10,> 10,"C#CCCOc1ccc(CO[C@]2(C(=O)O)C[C@H](O)[C@@H](NC(=O)CO)[C@H]([C@H](O)[C@H](O)CN)O2)cc1 [Compound 16, (2R,4S,5R,6R)-6-((1R,2R)-3-amino-1,2-dihydroxypropyl)-2-((4-(but-3-yn-1-yloxy)benzyl)oxy)-4-hydroxy-5-(2-hydroxyacetamido)tetrahydro-2H-pyran-2-carboxylic acid]"
1 to 10,1 to 10,1 to 10,"C#CCOCCOCCO[C@]1(C(=O)O)C[C@H](O)[C@@H](NC(=O)CO)[C@H]([C@H](O)[C@H](O)CNC(=O)Cc2ccc(-c3ccc(=O)[nH]c3)cc2)O1 [Compound 74, (2R,4S,5R,6R)-6-((1R,2R)-1,2-dihydroxy-3-(2-(4-(6-oxo-1,6-dihydropyridin-3-yl)phenyl)acetamido)propyl)-4-hydroxy-5-(2-hydroxyacetamido)-2-(2-(2-(prop-2-yn-1-yloxy)ethoxy)ethoxy)tetrahydro-2H-pyran-2-carboxylic acid]"
